Test results from ChEMBL document CHEMBL1201862, “PubChem BioAssay data set” (2004).
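Test compounds were applied to cells in 96-well plates for 48 hours at 5 doses. The concentration for 50% growth inhibition is given as GI50.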 Calls of active or inactive are those of the source. Rule as the data show it: active = GI50 up to about 1.1 µM and inactive = higher.

Columns and labels:
Test in all cases: inhibition of tumour cell growth, NCI panel, 48 h
A549 = tested on: A549
IGROV-1 = tested on: IGROV-1
M14 = tested on: M14
MCF7 = tested on: MCF7
NCI-H226 = tested on: NCI-H226
NCI-H460 = tested on: NCI-H460
OVCAR-4 = tested on: OVCAR-4
OVCAR-8 = tested on: OVCAR-8
RPMI-8226 = tested on: RPMI-8226
SF-268 = tested on: SF-268
SF-295 = tested on: SF-295
SK-MEL-28 = tested on: SK-MEL-28
SK-MEL-5 = tested on: SK-MEL-5
SK-OV-3 = tested on: SK-OV-3
SNB-19 = tested on: SNB-19
SNB-75 = tested on: SNB-75
SR = tested on: SR
TK-10 = tested on: TK-10
U-251 = tested on: U-251
UO-31 = tested on: UO-31

Compound	GI50 (A549)	GI50 (IGROV-1)	GI50 (M14)	GI50 (MCF7)	GI50 (NCI-H226)	GI50 (NCI-H460)	GI50 (OVCAR-4)	GI50 (OVCAR-8)	GI50 (RPMI-8226)	GI50 (SF-268)	GI50 (SF-295)	GI50 (SK-MEL-28)	GI50 (SK-MEL-5)	GI50 (SK-OV-3)	GI50 (SNB-19)	GI50 (SNB-75)	GI50 (SR)	GI50 (TK-10)	GI50 (U-251)	GI50 (UO-31)
c1ccc(CNCCCNCCCCNCCCNCc2ccccc2)cc1	14.4 µM (inactive)	1.93 µM (inactive)	5.46 µM (inactive)	3.21 µM (inactive)	4.68 µM (inactive)	6.27 µM (inactive)	13.8 µM (inactive)	12.8 µM (inactive)	2.22 µM (inactive)	12.2 µM (inactive)	15.1 µM (inactive)	12.1 µM (inactive)	7.85 µM (inactive)	15.7 µM (inactive)	13.2 µM (inactive)	8.91 µM (inactive)	3.39 µM (inactive)	5.69 µM (inactive)	7.87 µM (inactive)	12.2 µM (inactive)
CCSCC(N)C(=O)O (stereo not given)	> 100 µM (inactive)	> 100 µM (inactive)	> 100 µM (inactive)	> 100 µM (inactive)	> 100 µM (inactive)	> 100 µM (inactive)	> 100 µM (inactive)	> 100 µM (inactive)	> 100 µM (inactive)	> 100 µM (inactive)	> 100 µM (inactive)	> 100 µM (inactive)	> 100 µM (inactive)	> 100 µM (inactive)	> 100 µM (inactive)	> 100 µM (inactive)	> 100 µM (inactive)	> 100 µM (inactive)	> 100 µM (inactive)	> 100 µM (inactive)
O=c1c2ccccc2n2nnc3ccc(NCCCNCCNCCCNc4ccc5nnn6c7ccccc7c(=O)c4c56)c1c32	0.612 µM (active)	0.57 µM (active)	> 12.6 µM (inactive)	0.447 µM (active)	0.005 µM (active)	0.505 µM (active)	2.3 µM (inactive)	1.28 µM (inactive)	0.716 µM (active)	1.79 µM (inactive)	5.89 µM (inactive)	> 18.5 µM (inactive)	> 50 µM (inactive)	> 20.3 µM (inactive)	6.84 µM (inactive)	7.89 µM (inactive)	0.0883 µM (active)	0.832 µM (active)	0.759 µM (active)	2.86 µM (inactive)
CCC/C(Cl)=N\OC(=O)Nc1cccc(C(F)(F)F)c1	19.7 µM (inactive)	17.1 µM (inactive)	17.7 µM (inactive)	14 µM (inactive)	20.5 µM (inactive)	19.4 µM (inactive)	22.6 µM (inactive)	17.9 µM (inactive)	4.61 µM (inactive)	27.3 µM (inactive)	13.5 µM (inactive)	19.2 µM (inactive)	15.5 µM (inactive)	13.6 µM (inactive)	> 100 µM (inactive)	10.4 µM (inactive)	2.26 µM (inactive)	15.4 µM (inactive)	18.5 µM (inactive)	19.6 µM (inactive)
Cn1ccnc1CC(C)(O)c1ccccc1 (stereo not given)	> 100 µM (inactive)	> 100 µM (inactive)	> 100 µM (inactive)	> 100 µM (inactive)	> 100 µM (inactive)	> 100 µM (inactive)	> 100 µM (inactive)	> 100 µM (inactive)	> 100 µM (inactive)	> 100 µM (inactive)	> 100 µM (inactive)	> 100 µM (inactive)	> 100 µM (inactive)	> 100 µM (inactive)	> 100 µM (inactive)	> 100 µM (inactive)	> 100 µM (inactive)	> 100 µM (inactive)	> 100 µM (inactive)	> 100 µM (inactive)
CN(CC1(CO)CCC1)c1cc(Cl)nc(N)n1	> 100 µM (inactive)	> 100 µM (inactive)	> 100 µM (inactive)	> 100 µM (inactive)	> 100 µM (inactive)	> 100 µM (inactive)	58.9 µM (inactive)	> 100 µM (inactive)	> 100 µM (inactive)	> 100 µM (inactive)	> 100 µM (inactive)	> 100 µM (inactive)	> 100 µM (inactive)	> 100 µM (inactive)	> 100 µM (inactive)	78.5 µM (inactive)	> 100 µM (inactive)	> 100 µM (inactive)	> 100 µM (inactive)	> 100 µM (inactive)
COc1cc2nc(-c3cccs3)nc(Nc3cccc([N+](=O)[O-])c3)c2cc1OC	21.1 µM (inactive)	17.3 µM (inactive)	17 µM (inactive)	24.9 µM (inactive)	18.2 µM (inactive)	26.3 µM (inactive)	30.9 µM (inactive)	21.5 µM (inactive)	28.1 µM (inactive)	20.3 µM (inactive)	21.6 µM (inactive)	23.7 µM (inactive)	29.2 µM (inactive)	20.3 µM (inactive)	17.6 µM (inactive)	29 µM (inactive)	10.8 µM (inactive)	20.8 µM (inactive)	17.3 µM (inactive)	19.2 µM (inactive)
Cc1ccc2c(n1)C(=O)C=CC2=O	16.9 µM (inactive)	14.7 µM (inactive)	15 µM (inactive)	5.33 µM (inactive)	19.6 µM (inactive)	17.4 µM (inactive)	6.87 µM (inactive)	15.1 µM (inactive)	2.59 µM (inactive)	20.9 µM (inactive)	18.2 µM (inactive)	3.56 µM (inactive)	14.9 µM (inactive)	18.3 µM (inactive)	18 µM (inactive)	19.4 µM (inactive)	3.24 µM (inactive)	2.52 µM (inactive)	17.4 µM (inactive)	5.46 µM (inactive)
Cc1ccc(S(=O)(=O)/N=C2/N(C)CCCS2(=O)=O)cc1	> 100 µM (inactive)	> 100 µM (inactive)	> 100 µM (inactive)	> 100 µM (inactive)	> 100 µM (inactive)	> 100 µM (inactive)	> 100 µM (inactive)	> 100 µM (inactive)	> 100 µM (inactive)	> 100 µM (inactive)	0.17 µM (active)	> 100 µM (inactive)	> 100 µM (inactive)	> 100 µM (inactive)	> 100 µM (inactive)	> 100 µM (inactive)	> 100 µM (inactive)	> 100 µM (inactive)	> 100 µM (inactive)	> 100 µM (inactive)
CN(C)CCNC(=O)C(C)(C)Oc1ccc(C(=O)c2ccc(Cl)cc2)cc1Cl	9.18 µM (inactive)	11.9 µM (inactive)	2.45 µM (inactive)	8.34 µM (inactive)	14.7 µM (inactive)	7.98 µM (inactive)	14.5 µM (inactive)	11.8 µM (inactive)	3.94 µM (inactive)	13.7 µM (inactive)	10.6 µM (inactive)	1.94 µM (inactive)	2.25 µM (inactive)	15.9 µM (inactive)	13 µM (inactive)	11.5 µM (inactive)	6.84 µM (inactive)	11.4 µM (inactive)	7.05 µM (inactive)	9.59 µM (inactive)
CN/C(N)=N/N=C1/C(=O)Nc2ccccc21	> 100 µM (inactive)	> 100 µM (inactive)	> 100 µM (inactive)	> 100 µM (inactive)	> 100 µM (inactive)	> 100 µM (inactive)	> 100 µM (inactive)	> 100 µM (inactive)	> 100 µM (inactive)	> 100 µM (inactive)	> 100 µM (inactive)	> 100 µM (inactive)	> 100 µM (inactive)	> 100 µM (inactive)	> 100 µM (inactive)	> 100 µM (inactive)	> 100 µM (inactive)	> 100 µM (inactive)	> 100 µM (inactive)	> 100 µM (inactive)
CCCc1c(OC)c(=O)c2c(O)cc(OC)c3c4c(OC)cc(O)c5c(=O)c(OC)c(CCC)c(c1c23)c54	1.32 µM (inactive)	2.98 µM (inactive)	2.05 µM (inactive)	3.43 µM (inactive)	3.46 µM (inactive)	3.16 µM (inactive)	3.72 µM (inactive)	0.944 µM (active)	2.5 µM (inactive)	5 µM (inactive)	9.62 µM (inactive)	5.68 µM (inactive)	3.29 µM (inactive)	9.77 µM (inactive)	4.32 µM (inactive)	1.59 µM (inactive)	0.31 µM (active)	44.7 µM (inactive)	0.615 µM (active)	2.62 µM (inactive)
COC(OC)C1OCC(n2cc(F)c(=O)[nH]c2=O)C1O (stereo not given)	> 100 µM (inactive)	> 100 µM (inactive)	> 100 µM (inactive)	> 100 µM (inactive)	> 100 µM (inactive)	> 100 µM (inactive)	> 100 µM (inactive)	> 100 µM (inactive)	> 100 µM (inactive)	> 100 µM (inactive)	> 100 µM (inactive)	> 100 µM (inactive)	> 100 µM (inactive)	> 100 µM (inactive)	> 100 µM (inactive)	> 100 µM (inactive)	> 100 µM (inactive)	> 100 µM (inactive)	> 100 µM (inactive)	> 100 µM (inactive)
COc1cccc(/C=C2\N=C(c3ccccc3)OC2=O)c1	> 100 µM (inactive)	34.1 µM (inactive)	81.3 µM (inactive)	> 100 µM (inactive)	37.8 µM (inactive)	50.7 µM (inactive)	53.6 µM (inactive)	64.4 µM (inactive)	35.1 µM (inactive)	> 100 µM (inactive)	> 100 µM (inactive)	> 100 µM (inactive)	50.5 µM (inactive)	> 100 µM (inactive)	35.1 µM (inactive)	16.1 µM (inactive)	23.1 µM (inactive)	> 100 µM (inactive)	63.7 µM (inactive)	> 100 µM (inactive)
